Assay results reported in patent US10253085B2, “CD31 peptides for the treatment of thrombotic or autoimmune disorders” (INSERM (INSTITUT NATIONAL DE LA SANTE ET DE LA RECHERCHE …, priority 2008, dated 2019).
Residues, ends and D or L forms follow the SMILES beside them.

What was measured:
[1] = molecular target: T1, peptide 551-574 coated on CM5 chips (Mus musculus, UniProt Q08481); assay: Surface plasmon resonance (BIAcore) homophilic binding of peptide 551-574; conditions: homophilic interaction
T1 construct: made in house; host or cells: chemical synthesis (no expression host)
Experimental: Homophilic binding association and dissociation constants were calculated by surface plasmon resonance (BIAcore® 2000, GE). In brief, peptide 551-574 was coated at 3400 resonance units (RU) on CM5 chips according to the manufacturer's instructions. Soluble peptide 551-574 (12.5, 25, 50 and 100 μM in 200 μl of 10 mM HEPES pH 7.4, 150 mM NaCl, 0.005% Tween 20) was injected at 20 μl/min at 25° C., on the peptide-coated channel and on an uncoated channel. Dissociation was monitored for 300 seconds. Association (kon) and dissociation (koff) constants were calculated using the BlAevaluation® 3.0 Software (GE).

scramble peptide = assay: Surface plasmon resonance (BIAcore), channel coated with the scramble peptide; format: binding; conditions: injection of soluble peptide
[2] = test system: Spleen cells from C57Bl/6 mice; assay: Calcium mobilisation assay in Fluo-3AM-loaded spleen cells; format: cell-based, mouse; conditions: anti-CD3/CD28, peptide 100 μM; compared with anti-CD31 antibody cross-linking
Experimental: Spleen cells from C57Bl/6 mice were prepared as described in Caligiuri et al. (2005 Arterioscler Thromb Vasc Biol 25:1659-1664). Cells were incubated with Fluo-3AM (Invitrogen, # F1242) as per the instructions of the manufacturer. Fluorescence of calcium-bound tracer was measured in the FITC channel on an LSRII® cytometer (BD Biosciences) prior to and during 60 seconds following the addition of hamster anti-mouse CD3/CD28 monoclonal antibodies (40 μg/ml each) and rat/hamster compBead® (1:50) either alone or in the presence of rat anti-mouse CD31 antibody (clone 390, 10 μg/ml) or in the presence of CD31 peptide 551-574 (100 μM). Negative controls included rat IgG isotype control and scramble peptide. Antibodies and compBeads® were from BD Biosciences.

[3] = test system: BALB/c mice primed with TNCB; assay: Delayed type hypersensitivity (DTH) suppression model; format: in vivo, mouse
Experimental: Delayed type hypersensitivity (DTH) suppression was evaluated as described in the “Current Protocols in Immunology (2001) 4.0.1-4.0.2 Unit 4.2”. Briefly, TNCB (2-chloro-1,3,5-trinitrobenzene, Fluka #79874) was dissolved in acetone/olive oil (1:1 v/v) at a concentration of 10 mg/ml. BALB/c mice (n=6/group) were primed by painting the shaved regions of the abdomen a with a total 0.2 ml of the preparation (n=6/group). The experiment included 3 groups for peptide 551-574 (10, 50, 100 μM) and 1 group treated with scramble peptide at 100 μM). Five days after priming, 10 μl of the TNCB-solvent mixture was painted on the right pinna, 30 minutes after subcutaneous (interscapolar) administration of the peptide 551-574 or the scramble peptide. Ear thickness increases were calculated by subtracting the thickness of the right and the left pinna of each mouse (right-left/left×100), measured at 24 h with a dial caliper (“Pocotest”, Kroeplin Längenmesstechnick). The measure was performed 5 times on each ear and averaged for further analysis. The immunosuppressive effect of the peptide was calculated as % suppression=(1−ΔTE/ΔTS)×100, where ΔT=(ear thickness 24 hr after elicitation)−(baseline ear thickness), […]. Data are expressed as mean±SEM.

[4] = test system: CD4+ cells from C57Bl6 mice; assay: CD4+ T cell activation, early activation marker CD69 by flow cytometry; format: cell-based, mouse; conditions: 18 hours culture
Experimental: Alternatively, the T-cell proliferation assay may comprise comparing expression levels of the early activation marker CD69 in T-cells cultured either in the presence or in the absence of the compound to be tested. This assay may for example be performed as follows: • providing purified CD4+ cells (e.g. purified from C57B16 mice); • stimulating said CD4+ cells by addition of anti-CD3 purified antibodies and bone marrow derived dendritic cells; • culturing the cells for about 18 hours; and • analyzing said cells for the expression of the early activation marker CD69, e.g. by flow cytometry; and • comparing CD69 expression in the presence of the compound to be tested.
The immunosuppressive properties of PepReg (10aa) vs the 23 aa parent peptide were evaluated in vitro. Negatively purified CD4+ cells from C57Bl6 mice were stimulated by soluble anti-CD3 purified antibodies and bone marrow derived dendritic cells. Cells from triplicate wells were analyzed for the expression of the early activation marker CD69 after 18 hours culture in complete RPMI medium supplemented with 10% fetal calf serum.

[5] = test system: C57BL/6J mice immunized with MOG35-55 peptide; assay: Experimental Autoimmune Encephalomyelitis (EAE) model; format: in vivo, mouse; conditions: single peptide shot
Experimental: Twelve-week old female C57BL/6J mice were immunized with 300 μg of MOG35-55 peptide emulsified in Complete Freund's Adjuvant 1:1 by volume containing 800 μg of nonviable desiccated Mycobacterium tuberculosis H37RA. A final volume of 200 μl of the emulsion was injected subcutaneously at 4 sites (50 μl/site) over the flanks. In addition, 300 ng of Pertussis toxin was injected intravenously (retro-orbital plexus) on the same day and 2 days later. Clinical signs of EAE ware assessed daily by the following scoring system: 0, no signs; 1, hindlimb weakness; 2, hindlimb weakness and tail paralysis; 3, hindlimb and tail paralysis; 4, hindlimb and tail paralysis and forelimb weakness; 5, moribund state; and 6, death. The peak (waxing phase) occured around day 21. In this C57BL/6J mouse model, there was no waning phase as assessed in our laboratory up to day 41.
The experiment was carried out with ten mice per group. The mice of each group were treating with either of: • PBS; • PepReg (SEQ ID NO: 3); or • PepScra (SEQ ID NO: 14).
The dosing was of 50 μg of peptide per mice and per day (i.e. about 2 mg/Kg per day). The peptide was administered by a subcutaneous injection.

CSCC[C@H](NC(=O)[C@H](CO)NC(=O)[C@@H](N)CO)C(=O)N[C@@H](CCCNC(=N)N)C(=O)N[C@H](C(=O)N[C@@H](CO)C(=O)N1CCC[C@H]1C(=O)N[C@@H](CCCNC(=N)N)C(=O)N[C@@H](CO)C(=O)N[C@@H](CO)C(=O)N[C@H](C(=O)N[C@@H](CC(C)C)C(=O)N[C@@H](C)C(=O)N[C@H](C(=O)N[C@@H](CCCNC(=N)N)C(=O)N[C@H](C(=O)N[C@@H](Cc1ccccc1)C(=O)N[C@@H](CC(C)C)C(=O)N[C@@H](C)C(=O)N1CCC[C@H]1C(=O)N[C@@H](Cc1c[nH]c2ccccc12)C(=O)N[C@@H](CCCCN)C(=O)N[C@@H](CCCCN)C(=O)O)C(C)C)C(C)C)[C@@H](C)O)[C@@H](C)O [peptide 551-574] (H-SSMRTSPRSSTLAVRVFLAPWKK-OH)
kon ([1]; 25° C., analyte 12.5-100 μM, read-out: association constant (kon)): 134 ± 120 M⁻¹ s⁻¹ | koff ([1]; 25° C., read-out: dissociation constant (koff)): 0.00158 s⁻¹ | Kd ([1]; read-out: affinity at equilibrium): 17.8 ± 9.7 µM | signal on a channel coated with the scramble peptide (scramble peptide): negligible signal | inhibition of TCR-induced calcium mobilization [2]: as an efficient immunoregulatory strategy as it is the co-ligation of CD3 and CD28 with the distal portion of CD31 | immunosuppression in DTH model ([3]; single subcutaneous administration of 50 μM): Effective immunosuppression | suppression of distal recall of a hapten-elicited specific immune response (ear thickness) ([3]; single subcutaneous administration, peptide 10, 50, 100 μM, scramble 100 μM): suppressed in a dose-dependent manner | dose at which suppression of CD69 expression was observed [4]: 100 µg/mL | duration of protective effect in EAE [5]: up to 5 days
